Experimental data taken from patent US7202280B2, “Methods for the treatment and prevention of pancreatitis and for induction of liver regeneration” (priority 2002, dated 2007).

Key:
SSAT = test: Hepatic, pancreatic and renal SSAT activity in syngenic and metallothionein-SSAT mice after analogue; assay type: in vivo, mouse; settings: 24 h
Method: (§1) α-methylspermidine, Bis-α-methylspermine and α-methylspermine were administered in saline. […] The data are expressed as means ±S.D. For statistical analysis, the two-tailed Student's t test was used.

[1] = test system: syngenic and metallothionein-SSAT mice; test: Hepatic, pancreatic and renal polyamine concentration in syngenic and metallothionein-SSAT mice after analogue; assay type: in vivo, mouse; settings: 24 h
Method: as §1

## CC(N)CCNCCCCN (stereo not drawn) [α-methylspermidine, 1-methylspermidine]
SSAT; Sg mice, 50 mg/kg
  SSAT activity, Kidney: 4.98 pmoles/10 min/mg tissue wet weight
  SSAT activity, Liver: 3.74 pmoles/10 min/mg tissue wet weight
  SSAT activity, Pancreas: 6.58 pmoles/10 min/mg tissue wet weight
SSAT; Sg mice, 100 mg/kg
  SSAT activity, Kidney: 4.61 pmoles/10 min/mg tissue wet weight
  SSAT activity, Liver: 3.77 pmoles/10 min/mg tissue wet weight
  SSAT activity, Pancreas: 7.50 pmoles/10 min/mg tissue wet weight
SSAT; Sg mice, 150 mg/kg
  SSAT activity, Kidney: 5.05 pmoles/10 min/mg tissue wet weight
  SSAT activity, Liver: 4.16 pmoles/10 min/mg tissue wet weight
  SSAT activity, Pancreas: 6.91 pmoles/10 min/mg tissue wet weight
SSAT; Sg mice, 250 mg/kg
  SSAT activity, Liver: 3.75 pmoles/10 min/mg tissue wet weight
  SSAT activity, Pancreas: 12.10 pmoles/10 min/mg tissue wet weight
SSAT; Sg mice, 375 mg/kg
  SSAT activity, Liver: 9.52 pmoles/10 min/mg tissue wet weight
  SSAT activity, Pancreas: 18.19 pmoles/10 min/mg tissue wet weight
SSAT; Sg mice, 500 mg/kg
  SSAT activity, Kidney: 14.67 pmoles/10 min/mg tissue wet weight
  SSAT activity, Liver: 16.06 pmoles/10 min/mg tissue wet weight
  SSAT activity, Pancreas: 26.85 pmoles/10 min/mg tissue wet weight
SSAT; Tg mice, 50 mg/kg
  SSAT activity, Kidney: 3.19 pmoles/10 min/mg tissue wet weight
  SSAT activity, Liver: 74.88 pmoles/10 min/mg tissue wet weight
  SSAT activity, Pancreas: 179.02 pmoles/10 min/mg tissue wet weight
SSAT; Tg mice, 100 mg/kg
  SSAT activity, Kidney: 3.13 pmoles/10 min/mg tissue wet weight
  SSAT activity, Liver: 74.88 pmoles/10 min/mg tissue wet weight
  SSAT activity, Pancreas: 226.27 pmoles/10 min/mg tissue wet weight
SSAT; Tg mice, 150 mg/kg
  SSAT activity, Kidney: 3.36 pmoles/10 min/mg tissue wet weight
  SSAT activity, Liver: 81.59 pmoles/10 min/mg tissue wet weight
  SSAT activity, Pancreas: 183.078 pmoles/10 min/mg tissue wet weight
SSAT; Tg mice, 250 mg/kg
  SSAT activity, Liver: 95.04 pmoles/10 min/mg tissue wet weight
  SSAT activity, Pancreas: 188.45 pmoles/10 min/mg tissue wet weight
SSAT; Tg mice, 375 mg/kg
  SSAT activity, Liver: 135.53 pmoles/10 min/mg tissue wet weight
  SSAT activity, Pancreas: 133.57 pmoles/10 min/mg tissue wet weight
[1]; Sg mice, 50 mg/kg
  hepatic N^1-Acetyl-spermidine: 21.45 pmoles/mg tissue wet weight
  hepatic Spermidine: 1018.24 pmoles/mg tissue wet weight
  hepatic Spermine: 864.34 ± 90.79 ^++ pmoles/mg tissue wet weight
  hepatic α-Methyl-spermidine: 394.01 pmoles/mg tissue wet weight
  pancreatic Putrescine: 2.82 pmoles/mg tissue wet weight
  pancreatic Spermidine: 6597.75 ± 1034.98 ^+ pmoles/mg tissue wet weight
  pancreatic Spermine: 911.15 pmoles/mg tissue wet weight
  renal N^1-Acetylspermidine: 36.67 pmoles/mg tissue wet weight
  renal Putrescine: 45.91 pmoles/mg tissue wet weight
  renal Spermidine: 315.36 ± 46.18 ^+ pmoles/mg tissue wet weight
  renal Spermine: 856.32 ± 68.27 pmoles/mg tissue wet weight
  renal α-Methylspermidine: 122.64 pmoles/mg tissue wet weight
[1]; Sg mice, 100 mg/kg
  hepatic N^1-Acetyl-spermidine: 12.90 pmoles/mg tissue wet weight
  hepatic Putrescine: 15.36 pmoles/mg tissue wet weight
  hepatic Spermidine: 729.82 pmoles/mg tissue wet weight
  hepatic Spermine: 892.64 ± 79.24 ^++ pmoles/mg tissue wet weight
  hepatic α-Methyl-spermidine: 461.44 pmoles/mg tissue wet weight
  pancreatic N^1-Acetyl-spermidine: 66.33 pmoles/mg tissue wet weight
  pancreatic Spermidine: 6089.81 ± 1039.94 ^++ pmoles/mg tissue wet weight
  pancreatic Spermine: 815.33 pmoles/mg tissue wet weight
  renal N^1-Acetylspermidine: 38.89 pmoles/mg tissue wet weight
  renal Putrescine: 68.97 pmoles/mg tissue wet weight
  renal Spermidine: 231.78 ± 25.15 pmoles/mg tissue wet weight
  renal Spermine: 686.21 ± 75.94 ^+ pmoles/mg tissue wet weight
  renal α-Methylspermidine: 146.37 pmoles/mg tissue wet weight
[1]; Sg mice, 150 mg/kg
  hepatic N^1-Acetyl-spermidine: 23.35 pmoles/mg tissue wet weight
  hepatic Spermidine: 723.14 pmoles/mg tissue wet weight
  hepatic Spermine: 739.53 ± 170.40 ^+ pmoles/mg tissue wet weight
  hepatic α-Methyl-spermidine: 504.41 pmoles/mg tissue wet weight
  pancreatic Putrescine: 1.66 pmoles/mg tissue wet weight
  pancreatic Spermidine: 6345.88 ± 1026.88 ^++ pmoles/mg tissue wet weight
  pancreatic Spermine: 833.73 pmoles/mg tissue wet weight
  renal N^1-Acetylspermidine: 24.61 pmoles/mg tissue wet weight
  renal Putrescine: 65.28 pmoles/mg tissue wet weight
  renal Spermidine: 240.59 ± 28.71 pmoles/mg tissue wet weight
  renal Spermine: 635.17 ± 42.35 pmoles/mg tissue wet weight
  renal α-Methylspermidine: 175.49 pmoles/mg tissue wet weight
[1]; Sg mice, 250 mg/kg
  hepatic N^1-Acetyl-spermidine: 18.97 pmoles/mg tissue wet weight
  hepatic Putrescine: 21.87 pmoles/mg tissue wet weight
  hepatic Spermidine: 593.49 pmoles/mg tissue wet weight
  hepatic Spermine: 854.77 ± 108.73 ^++ pmoles/mg tissue wet weight
  hepatic α-Methyl-spermidine: 763.57 pmoles/mg tissue wet weight
  pancreatic Putrescine: 158.82 pmoles/mg tissue wet weight
  pancreatic Spermidine: 4773.64 ± 838.69 ^++ pmoles/mg tissue wet weight
  pancreatic Spermine: 762.743 pmoles/mg tissue wet weight
  pancreatic α-Methyl-spermidine: 1363.02 pmoles/mg tissue wet weight
  renal N^1-Acetylspermidine: 31.10 pmoles/mg tissue wet weight
  renal Putrescine: 41.84 pmoles/mg tissue wet weight
  renal Spermidine: 225.57 ± 29.21 ^+ pmoles/mg tissue wet weight
  renal Spermine: 518.89 ± 36.68 pmoles/mg tissue wet weight
  renal α-Methylspermidine: 288.30 pmoles/mg tissue wet weight
[1]; Sg mice, 375 mg/kg
  hepatic N^1-Acetyl-spermidine: 31.64 pmoles/mg tissue wet weight
  hepatic Putrescine: 29.37 pmoles/mg tissue wet weight
  hepatic Spermidine: 370.29 pmoles/mg tissue wet weight
  hepatic Spermine: 644.88 ± 183.36 ^+ pmoles/mg tissue wet weight
  hepatic α-Methyl-spermidine: 1095.59 pmoles/mg tissue wet weight
  pancreatic N^1-Acetyl-spermidine: 14.02 pmoles/mg tissue wet weight
  pancreatic Putrescine: 726.66 pmoles/mg tissue wet weight
  pancreatic Spermidine: 4073.3 ± 670.46^++ pmoles/mg tissue wet weight
  pancreatic Spermine: 740.93 pmoles/mg tissue wet weight
  pancreatic α-Methyl-spermidine: 1319.14 pmoles/mg tissue wet weight
  renal N^1-Acetylspermidine: 27.40 pmoles/mg tissue wet weight
  renal Putrescine: 58.59 pmoles/mg tissue wet weight
  renal Spermidine: 189.46 ± 0.98 pmoles/mg tissue wet weight
  renal Spermine: 454.49 ± 64.44 ^+ pmoles/mg tissue wet weight
  renal α-Methylspermidine: 477.31 pmoles/mg tissue wet weight
[1]; Sg mice, 500 mg/kg
  hepatic N^1-Acetyl-spermidine: 133.00 pmoles/mg tissue wet weight
  hepatic Putrescine: 119.33 pmoles/mg tissue wet weight
  hepatic Spermidine: 273.13 pmoles/mg tissue wet weight
  hepatic Spermine: 666.13 ± 188.21 pmoles/mg tissue wet weight
  hepatic α-Methyl-spermidine: 1801.46 pmoles/mg tissue wet weight
  pancreatic N^1-Acetyl-spermidine: 10.62 pmoles/mg tissue wet weight
  pancreatic Putrescine: 812.54 pmoles/mg tissue wet weight
  pancreatic Spermidine: 3669.36 ± 1235.66 pmoles/mg tissue wet weight
  pancreatic Spermine: 652.17 pmoles/mg tissue wet weight
  pancreatic α-Methyl-spermidine: 1273.3 pmoles/mg tissue wet weight
  renal N^1-Acetylspermidine: 46.34 pmoles/mg tissue wet weight
  renal Putrescine: 789.63 pmoles/mg tissue wet weight
  renal Spermidine: 181.32 ± 28.81 pmoles/mg tissue wet weight
  renal Spermine: 458.07 ± 107.68 pmoles/mg tissue wet weight
  renal α-Methylspermidine: 1078.16 pmoles/mg tissue wet weight
[1]; Tg mice, 50 mg/kg
  hepatic N^1-Acetyl-spermidine: 245.16 pmoles/mg tissue wet weight
  hepatic Putrescine: 1055.38 pmoles/mg tissue wet weight
  hepatic Spermidine: 329.57 pmoles/mg tissue wet weight
  hepatic Spermine: 103.26 ± 188.21 pmoles/mg tissue wet weight
  hepatic α-Methyl-spermidine: 582.62 pmoles/mg tissue wet weight
  pancreatic N^1-Acetyl-spermidine: 204.43 pmoles/mg tissue wet weight
  pancreatic Putrescine: 4968.25 pmoles/mg tissue wet weight
  pancreatic Spermidine: 1316.94 ± 248.44 pmoles/mg tissue wet weight
  pancreatic Spermine: 224.17 pmoles/mg tissue wet weight
  pancreatic α-Methyl-spermidine: 627.87 pmoles/mg tissue wet weight
  renal N^1-Acetylspermidine: 49.14 pmoles/mg tissue wet weight
  renal Putrescine: 179.10 pmoles/mg tissue wet weight
  renal Spermidine: 231.02 ± 15.59 pmoles/mg tissue wet weight
  renal Spermine: 896.89 ± 25.61 pmoles/mg tissue wet weight
  renal α-Methylspermidine: 133.67 pmoles/mg tissue wet weight
[1]; Tg mice, 100 mg/kg
  hepatic N^1-Acetyl-spermidine: 293.66 pmoles/mg tissue wet weight
  hepatic Putrescine: 834.88 pmoles/mg tissue wet weight
  hepatic Spermidine: 286.11 pmoles/mg tissue wet weight
  hepatic Spermine: 97.52 ± 52.21 pmoles/mg tissue wet weight
  hepatic α-Methyl-spermidine: 676.44 pmoles/mg tissue wet weight
  pancreatic N^1-Acetyl-spermidine: 656.51 pmoles/mg tissue wet weight
  pancreatic Putrescine: 4467.46 pmoles/mg tissue wet weight
  pancreatic Spermidine: 1539.88 ± 351.44 pmoles/mg tissue wet weight
  pancreatic Spermine: 211.73 pmoles/mg tissue wet weight
  pancreatic α-Methyl-spermidine: 731.63 pmoles/mg tissue wet weight
  renal N^1-Acetylspermidine: 65.00 pmoles/mg tissue wet weight
  renal Putrescine: 133.86 pmoles/mg tissue wet weight
  renal Spermidine: 212.40 ± 10.9 pmoles/mg tissue wet weight
  renal Spermine: 840.58 ± 67.32 pmoles/mg tissue wet weight
  renal α-Methylspermidine: 136.61 pmoles/mg tissue wet weight
[1]; Tg mice, 150 mg/kg
  hepatic N^1-Acetyl-spermidine: 230.96 pmoles/mg tissue wet weight
  hepatic Putrescine: 603.18 pmoles/mg tissue wet weight
  hepatic Spermidine: 260.13 pmoles/mg tissue wet weight
  hepatic Spermine: 79.41 ± 25.11 pmoles/mg tissue wet weight
  hepatic α-Methyl-spermidine: 1206.94 pmoles/mg tissue wet weight
  pancreatic N^1-Acetyl-spermidine: 185.50 pmoles/mg tissue wet weight
  pancreatic Putrescine: 4457.91 pmoles/mg tissue wet weight
  pancreatic Spermidine: 1244.49 ± 565.07 pmoles/mg tissue wet weight
  pancreatic Spermine: 213.86 pmoles/mg tissue wet weight
  pancreatic α-Methyl-spermidine: 942.74 pmoles/mg tissue wet weight
  renal N^1-Acetylspermidine: 41.78 pmoles/mg tissue wet weight
  renal Putrescine: 119.47 pmoles/mg tissue wet weight
  renal Spermidine: 201.24 ± 19.1 pmoles/mg tissue wet weight
  renal Spermine: 721.39 ± 64.84 pmoles/mg tissue wet weight
  renal α-Methylspermidine: 148.99 pmoles/mg tissue wet weight
[1]; Tg mice, 250 mg/kg
  hepatic N^1-Acetyl-spermidine: 211.54 pmoles/mg tissue wet weight
  hepatic Putrescine: 444.97 pmoles/mg tissue wet weight
  hepatic Spermidine: 199.53 pmoles/mg tissue wet weight
  hepatic Spermine: 36.38 ± 9.89 pmoles/mg tissue wet weight
  hepatic α-Methyl-spermidine: 1293.76 pmoles/mg tissue wet weight
  pancreatic N^1-Acetyl-spermidine: 137.01 pmoles/mg tissue wet weight
  pancreatic Putrescine: 4637.87 pmoles/mg tissue wet weight
  pancreatic Spermidine: 967.83 ± 396.04 pmoles/mg tissue wet weight
  pancreatic Spermine: 157.23 pmoles/mg tissue wet weight
  pancreatic α-Methyl-spermidine: 1166.56 pmoles/mg tissue wet weight
  renal N^1-Acetylspermidine: 48.47 pmoles/mg tissue wet weight
  renal Putrescine: 103.63 pmoles/mg tissue wet weight
  renal Spermidine: 185.82 ± 18.56 pmoles/mg tissue wet weight
  renal Spermine: 597.01 ± 91.36 pmoles/mg tissue wet weight
  renal α-Methylspermidine: 169.73 pmoles/mg tissue wet weight
[1]; Tg mice, 375 mg/kg
  hepatic N^1-Acetyl-spermidine: 252.33 pmoles/mg tissue wet weight
  hepatic Putrescine: 861.39 pmoles/mg tissue wet weight
  hepatic Spermidine: 168.25 pmoles/mg tissue wet weight
  hepatic Spermine: 41.95 ± 8.02 pmoles/mg tissue wet weight
  hepatic α-Methyl-spermidine: 1012.46 pmoles/mg tissue wet weight
  pancreatic N^1-Acetyl-spermidine: 95.41 pmoles/mg tissue wet weight
  pancreatic Putrescine: 4826.59 pmoles/mg tissue wet weight
  pancreatic Spermidine: 1002.33 ± 365.29 pmoles/mg tissue wet weight
  pancreatic Spermine: 122.49 pmoles/mg tissue wet weight
  pancreatic α-Methyl-spermidine: 1378.62 pmoles/mg tissue wet weight
  renal N^1-Acetylspermidine: 44.65 pmoles/mg tissue wet weight
  renal Putrescine: 127.41 pmoles/mg tissue wet weight
  renal Spermidine: 173.73 ± 13.69 pmoles/mg tissue wet weight
  renal Spermine: 580.26 ± 51.87 pmoles/mg tissue wet weight
  renal α-Methylspermidine: 192.90 pmoles/mg tissue wet weight
